US11464770B2, “Anticancer pharmaceutical composition” (NATIONAL CANCER CENTER, priority 2016, dated 2022)
Read-outs that look alike come from different tables or passages of the source.

Assays:
[1] = tested on: breast cancer cell lines (e.g. MDA-MB-231, SK-BR-3, MDA-MB-468, HCC1954); test: Cell based assay, cell viability (CellTiter-Glo), breast cancer cell lines; settings: 72 hours treatment, CellTiter-Glo cell viability
Summary of the method: (§1)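 Cells were trypsinized, seeded, and left 24 h before compound was added at 0 to 2 μM final. After a further 72 h of culture, viability was read by ATP-based luminescence.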

[2] = tested on: melanoma cell lines; test: Cell based assay, cell viability (CellTiter-Glo), melanoma cell lines; settings: Homo sapiens; LOX-IMVI cell line
Summary of the method: as §1

[3] = tested on: renal cancer cell lines; test: Cell based assay, cell viability (CellTiter-Glo), renal cancer cell lines; settings: Homo sapiens; ACHN cells
Summary of the method: as §1

[4] = Homo sapiens, BT-20 cells, read-out: IC50, Breast cancer cell line BT-20
[5] = Homo sapiens, HCC1395 cells, read-out: IC50, Breast cancer cell line HCC1395
[6] = Homo sapiens, HCC1954 cells, read-out: IC50, Breast cancer cell line HCC1954
[7] = Homo sapiens, JIMT-1 cells, read-out: IC50, Breast cancer cell line JIMT-1
[8] = Homo sapiens, MCF7 cells, read-out: IC50, Breast cancer cell line MCF7
[9] = Homo sapiens, MDA-MB-231 cells, read-out: IC50, Breast cancer cell line MDA-MB-231
[10] = Homo sapiens, MDA-MB-468 cells, read-out: IC50, Breast cancer cell line MDA-MB-468
[11] = Homo sapiens, SK-BR-3 cells, read-out: IC50, Breast cancer cell line SK-BR-3
[12] = MDA-MB-231-L/DOX cells, read-out: IC50, Breast cancer cell line MDA-MB-231-L/DOX

| IC50 [1, 4] [nM] | IC50 [1, 5] [nM] | IC50 [1, 6] [nM] | IC50 [1, 7] [nM] | IC50 [1, 8] [nM] | IC50 [1, 9] [nM] | IC50 [1, 10] [nM] | IC50 [1, 11] [nM] | IC50 [1, 12] [nM] | IC50 [2] [nM] | IC50 [3] [nM] | Structure (SMILES) |
| --- | --- | --- | --- | --- | --- | --- | --- | --- | --- | --- | --- |
| > 2000 | > 10000 | > 2000 | > 10000 | > 2000 | > 2000 | > 2000 | > 2000 | > 2000 | > 2000 | > 2000 | CC(=O)c1c([S+]([O-])Cc2ccc(N)nc2)[nH]c2c(Br)ccc(Cl)c2c1=O (stereo not drawn) [Compound 100, 3-acetyl-2-(((6-aminopyridin-3-yl)methyl)sulfinyl)-8-bromo-5-chloroquinolin-4(1H)-one] |
| > 2000 | > 10000 | 1220 | > 10000 | > 2000 | > 2000 | 1670 | 1670 | > 2000 | > 2000 | > 2000 | O=C(c1c([S+]([O-])Cc2ccc(SC(F)(F)F)cc2)[nH]c2c(Br)ccc(Cl)c2c1=O)C1CC1 (stereo not drawn) [Compound 101, 8-bromo-5-chloro-3-(cyclopropanecarbonyl)-2-((4-((trifluoromethyl)thio)benzyl)sulfinyl)quinolin-4(1H)-one] |
| > 2000 | > 10000 | > 2000 | > 10000 | > 2000 | > 2000 | > 2000 | 1740 | > 2000 | > 2000 | > 2000 | CC(=O)c1c([S+]([O-])Cc2ccc(NS(C)(=O)=O)cc2)[nH]c2c(Br)ccc(Cl)c2c1=O (stereo not drawn) [Compound 103, N-(4-(((3-acetyl-8-bromo-5-chloro-4-oxo-1,4-dihydroquinolin-2-yl)sulfinyl)methyl)phenyl)methane-sulfonamide] |

More lines, now with the values behind:

| Structure (SMILES) | IC50 [1, 4] [nM] | IC50 [1, 5] [nM] | IC50 [1, 6] [nM] | IC50 [1, 7] [nM] | IC50 [1, 8] [nM] | IC50 [1, 9] [nM] | IC50 [1, 10] [nM] | IC50 [1, 11] [nM] | IC50 [1, 12] [nM] | IC50 [2] [nM] | IC50 [3] [nM] |
| --- | --- | --- | --- | --- | --- | --- | --- | --- | --- | --- | --- |
| CC(=O)c1c([S+]([O-])Cc2ccc(-n3cccn3)nc2)[nH]c2c(Br)ccc(Cl)c2c1=O (stereo not drawn) [Compound 99, 2-(((6-(1H-pyrazol-1-yl)pyridin-3-yl)methyl)sulfinyl)-3-acetyl-8-bromo-5-chloroquinolin-4(1H)-one] | > 2000 | > 2000 | 780 | > 10000 | > 2000 | 1170 | 670 | 670 | > 2000 | 870 | 1210 |
| CC(=O)c1c([S+]([O-])Cc2ccc(C(F)(F)F)nc2C)[nH]c2c(Br)ccc(Cl)c2c1=O (stereo not drawn) [Compound 102, 3-acetyl-8-bromo-5-chloro-2-(((2-methyl-6-(trifluoromethyl)pyridin-3-yl)methyl)sulfinyl)quinolin-4(1H)-one] | > 2000 | > 10000 | 1020 | > 10000 | > 2000 | 1720 | 1350 | 850 | > 2000 | 860 | 1630 |
| CC(=O)c1c([S+]([O-])Cc2ccc(Cl)nc2)[nH]c2c(Br)ccc(Cl)c2c1=O (stereo not drawn) [Compound 104, 3-acetyl-8-bromo-5-chloro-2-(((6-chloropyridin-3-yl)methyl)sulfinyl)quinolin-4(1H)-one] | > 2000 | > 10000 | 1050 | > 10000 | > 2000 | 1540 | 1460 | 930 | > 2000 | 880 | 1200 |
| COCCNc1ccc(C[S+]([O-])c2[nH]c3c(Br)ccc(Cl)c3c(=O)c2C(C)=O)cn1 (stereo not drawn) [Compound 105, 3-acetyl-8-bromo-5-chloro-2-(((6-((2-methoxyethyl)amino)pyridin-3-yl)methyl)sulfinyl)quinolin-4(1H)-one] | > 2000 | > 10000 | > 2000 | > 10000 | > 2000 | > 2000 | > 2000 | > 2000 | > 2000 | > 2000 | > 2000 |
| CC(=O)c1c([S+]([O-])Cc2nonc2C)[nH]c2c(Br)ccc(Cl)c2c1=O (stereo not drawn) [Compound 106, 3-acetyl-8-bromo-5-chloro-2-(((4-methyl-1,2,5-oxadiazol-3-yl)methyl)sulfinyl)quinolin-4(1H)-one] | > 2000 | > 10000 | > 2000 | > 10000 | > 2000 | > 2000 | > 2000 | > 2000 | > 2000 | > 2000 | > 2000 |
| CC(=O)c1c([S+]([O-])Cc2cnc3[nH]ccc3c2)[nH]c2c(Br)ccc(Cl)c2c1=O (stereo not drawn) [Compound 107, 2-(((1H-pyrrolo[2,3-b]pyridin-5-yl)methyl)sulfinyl)-3-acetyl-8-bromo-5-chloroquinolin-4(1H)-one] | > 2000 | > 10000 | > 2000 | > 10000 | > 2000 | > 2000 | > 2000 | > 2000 | > 2000 | > 2000 | > 2000 |
